In patent US20250154165A1, “MULTIANTENNARY GLYCOLIPID MIMETICS” (CONSEJO SUPERIOR DE INVESTIGACIONES CIENTÍFICAS (CSIC), priority 2021, published 2025):

Columns and labels:
[1] = system: Splenocytes treated with LPS; assay: Suppression of LPS-induced inflammation (splenocytes in vitro); type: cell-based, mouse; conditions: splenocytes treated concurrently with compound and LPS (FIG. 1)
Experimental: FIG. 1. […] Splenocytes were treated concurrently with the compounds of the invention and LPS to assess the suppressive function of compounds on LPS-induced inflammation, with several compounds showing prominent suppressive function.
(§1) The whole spleen was surgically removed from a mouse and mechanically dissociated into a single cell suspension of splenocytes, which were then cultured in the complete RPMI 1640 medium (cRPMI). Human peripheral blood mononuclear cells (PBMCs) from healthy volunteers were collected from whole blood through gradient-centrifugation with Histopaque-1077 (Sigma-Aldrich).
Splenocytes were treated concurrently with the compounds of the invention and LPS to assess the suppressive function of compounds on LPS-induced inflammation.

[2] = system: B6 mice; assay: Adjuvancy function in vivo (serum IFNγ and IL-4 after injection)
Experimental: FIG. 11. […] The adjuvancy capability of the selected compounds 8, 12, 18, 27, and 29 in vivo was assessed by measuring the serum level of IFNγ and IL-4 induced after injecting them into B6 mice.
Besides assessing the ability of the new compounds to suppress inflammation, we also looked into their function to act as adjuvants, i.e. their ability to promote desirable immunological trends in the development of vaccines. We measured the in vivo adjuvancy capability of selected compounds 8, 12, 18, 27, and 29 in inducing IFNγ and IL-4 in B6 mice (FIG. 11).

[3] = system: Splenocytes; assay: Immune-stimulating function of compounds alone (splenocytes in vitro); type: cell-based, mouse; conditions: for Th1/Th2 bias: concluded from IFNγ and IL-4 secretion of splenocytes (FIG. 6); for IFNγ secretion / IL-4 secretion: splenocytes treated with compound alone (FIG. 6)
Experimental: FIG. 6. […] Splenocytes were treated with the compounds of the invention alone to assess the immune-stimulating function of the compounds. Compounds 12, 18, 22, 27, and 29 induced significant IFNγ secretion, and compound 8 induced significant IL-4 secretion.
as §1
Splenocytes were treated with the compounds of the invention alone to assess the immune-stimulating function of the compounds by measuring their ability to promote the secretions of IFN-γ and IL-4.

[4] = system: bone marrow-derived macrophages (BMDM) treated with LPS; assay: Suppression of LPS-induced inflammation in bone marrow-derived macrophages (BMDM in vitro); type: cell-based; conditions: LPS-induced, BMDM (FIG. 2)
Source text: Since macrophage is the major responder to LPS-induced inflammation, we assessed the capability of selected compounds to suppress LPS-induced inflammation in bone marrow-derived macrophages (BMDM).

[5] = system: OVA-induced AHR mouse model; assay: Suppression of OVA-induced airway inflammation in vivo (IL-13 and IL-4 in BALF and lungs); conditions: OVA-induced AHR experiment; for IL-4 level in BALF / IL-13 level in BALF: bronchoalveolar lavage fluid (FIG. 8); for IL-4 protein level in lungs / IL-13 protein level in lungs: lung protein (FIG. 9)
Experimental: FIG. 8. […] The bronchoalveolar lavage fluid (BALF) from mice in the OAV-induced AHR experiment was examined forth IL-13 and IL-4 levels.
FIG. 9. […] The lungs from mice in the OAV-induced AHR experiment was examined for their IL-13 and IL-4 protein level.
FIG. 10. […] The lungs from mice in the OAV-induced AHR experiment was examined for their IL-13 and IL-4 mRNA levels.
(§2) For ovalbumin (OVA) challenge, mice were sensitized intraperitoneally (i.p.) with 50 μg of OVA with 2% alhydrogel adjuvant (InvivoGen). Mice were challenged three times with 50 μg of OVA on day 7 post-sensitization, either daily or every other day. Mice were sacrificed the day after the last OVA challenge. The scheme of the OT-1 adoptive transfer mouse model for examining the proliferation of CD8^+ T cells in adjuvanting OVA challenge is described in FIG. 13.
Upon exposure of the trachea, the lungs were lavaged twice with 1 mL of PBS supplemented with 2% fetal calf serum (FCS). BALF was pooled and bronchoalveolar (BAL) cells were pelleted by centrifugation and fixed onto cytospin slides. The slides were stained with Diff-Quik solution (Polysciences Inc) and BAL differential cell count was performed.
(§3) Using the Th2 OVA-induced AHR mouse model, we assessed the capability of selected compounds 8, 12, 18, and 27 in suppressing Th2 inflammation.

[6] = system: OVA-induced AHR mouse model; assay: Suppression of OVA-induced airway hyperreactivity (AHR) in vivo; conditions: OVA-induced AHR mouse model (FIG. 7)
Experimental: FIG. 7. […] The capability of selected compounds 8, 12, 18, and 27 in suppressing Th2 inflammation in vivo was assessed using the OAV-induced AHR mouse model.
as §2
Mice were anesthetized with 100 mg per kg body weight pentobarbital (Sigma-Aldrich), tracheotomised and mechanically ventilated via the FinePointe RC system (Buxco Research Systems, Wilmington, NC). Lung function was assessed by measuring lung resistance and dynamic compliance in response to increasing doses of aerosolized methacholine (1.25-40 mg/mL, Sigma-Aldrich).
as §3

[7] = system: Splenocytes treated with αGalCer; assay: Suppression of αGalCer-induced inflammation (splenocytes in vitro); type: cell-based, mouse; conditions: splenocytes treated concurrently with compound and αGalCer (FIG. 5)
Experimental: FIG. 5. […] Splenocytes were treated concurrently with the compounds of the invention and αGalCer to assess the suppressive function of compounds on αGalCer-induced inflammation, with several compounds showing prominent suppressive function.
as §1
Splenocytes were treated concurrently with the compounds of the invention and αGalCer to assess their ability to suppress αGalCer-induced inflammation.

[8] = system: glycosidases of human fibroblast lysates; assay: Stability of the glycosidic linkage to glycosidases upon incubation with human fibroblast lysates; type: in vitro ADME; conditions: 4 h, 37° C., compound solution 200 μM, 0.1 M citrate buffer pH 4.5
Experimental: The stability of the glyosidic linkage in compounds 2, 4, 6, 8, 10, 12, 14, 16, 18, 20, 22, 23, 25, 27 and 29, selected as representative examples, upon incubation with human fibroblast lysates for 4 h was checked. For such purpose, cells were scraped into ice-cold H2O (10^6 cells mL^−1) and lysed by sonication. Insoluble materials were removed by centrifugation at 15,000 rpm for 5 min and protein concentrations were determined with Protein Assay Rapid Kit (WAKO, Tokyo, Japan). 10 μL of the lysates in 0.1% Triton X-100 in distilled water were incubated at 37° C. with 20 μL of the compound solution (200 μM) in 0.1 M citrate buffer, pH 4.5. In control experiments, the activity of several lysosomas glycosidases was confirmed using fluorescent substrates. The substrates were 4-methylumbelliferone (4-MU)-conjugated β-D-glucopyranoside (for GCase), α-D-glucopyranoside (for α-glucosidase), α-D-galactopyranoside (for α-Galase) and β-D-galactopyranoside (for β-galactosidase). The liberated 4-methylumbelliferone was measured in the black-well plate with a Perkin Elmer Luminescence Spectrometer (excitation wavelength: 340 nm; emission: 460 nm).

[9] = 2 hours after injection (FIG. 11)
[10] = 18 hours after injection (FIG. 11)

SMILES	suppressive function on LPS-induced inflammation [1]	serum level of IFNγ induced [2, 9]	serum level of IL-4 induced [2, 9]	serum level of IFNγ induced [2, 10]	serum level of IL-4 induced [2, 10]	Th1/Th2 bias [3]	IFNγ secretion [3]	IL-4 secretion [3]	IL-4 protein level in lungs [5]	IL-13 protein level in lungs [5]	other results
CCCCCCCCCCCCNC(=O)[C@H](CO[C@@H]1C(O)[C@@H](O)[C@H](O)C2COC(=O)N21)NC(=S)NCCCCCCCC (some centres unmarked) [Compound 14]	prominent inflammation-suppressing function										
CCCCCCCCCCCCNC(=O)[C@H](CO[C@@H]1C(O)[C@@H](O)[C@@H](O)C2COC(=O)N21)NC(=O)CCCCCCCCCCC (some centres unmarked) [Compound 27]		significant capability in inducing	significant capability in inducing	significant detectable level	significant detectable level	Th1-biased	effective in promoting the productions of IFNγ	not IL-4	only showed significant suppression on IL-13	significant suppression	suppression of IL-6 [4]: significant suppression; suppression of TNFα [4]: significant suppression; IL-4 level in BALF [5]: only showed significant suppression on IL-13; IL-13 level in BALF [5]: significant suppression
CCCCCCCCCCCCCC[C@@H](O)[C@@H](O)[C@H](CO[C@@H]1C(O)[C@@H](O)[C@@H](O)C2COC(=O)N21)n1cc(CCCCCCCC)nn1 (some centres unmarked) [Compound 8]	prominent inflammation-suppressing function	significant capability in inducing	significant capability in inducing	significant detectable level	significant detectable level	Th2-biased	not IFNγ	proficient at inducing IL-4 secretion	only showed significant suppression on IL-13	significant suppression	suppression of airway hyperreactivity (AHR) [6]: can suppress AHR onset
CCCCCCCCCCCCCCCCCCCCCCCCCC(=O)N[C@@H](CO[C@@H]1C(O)[C@@H](O)[C@H](O)C2COC(=O)N21)[C@H](O)[C@H](O)CCCCCCCCCCCCCC (some centres unmarked) [Compound 2]											suppressive function on αGalCer-induced inflammation [7]: prominent inflammation-suppressing function
CCCCCCCCCCCCNC(=O)[C@H](CS[C@@H]1C(O)[C@@H](O)[C@H](O)C2COC(=O)N21)NC(=O)CCCCCCCCCCC (some centres unmarked) [Compound 18]	prominent inflammation-suppressing function	significant serum IFNγ level	only showed significant serum IFNγ level	significant serum IFNγ level	only showed significant serum IFNγ level	Th1-biased	effective in promoting the productions of IFNγ	not IL-4	only showed significant suppression on IL-13	significant suppression	suppression of airway hyperreactivity (AHR) [6]: can suppress AHR onset; IL-4 level in BALF [5]: significant suppression; IL-13 level in BALF [5]: only showed significant suppression on IL-4
CCCCCCCCCCCCNC(=O)[C@H](CS[C@@H]1C(O)[C@@H](OCc2ccccc2)[C@H](O)C2COC(=O)N21)NC(=O)CCCCCCCCCCC (some centres unmarked) [Compound 20]	prominent inflammation-suppressing function										
CCCCCCCCCCCCCCC(O)C(O)C(COC1C(O)C(O)C(O)C2COC(=O)N21)n1cc(CCCCCCCCCCCC)nn1 (centres unmarked) [Compound 10]	prominent inflammation-suppressing function										hydrolysis of the glycolipid mimetic (free polysubstituted 2-oxa-3-oxoindolizidine detected by gas chromatography) [8]: No traces of the free polysubstituted 2-oxa-3-oxoindolizidine
CCCCCCCCCCCCCC(=O)N[C@@H](CS[C@@H]1C(O)[C@@H](O)[C@H](O)C2COC(=O)N21)C(=O)NCCCCCCCCCCCC (some centres unmarked) [Compound 22]						Th1-biased	effective in promoting the productions of IFNγ	not IL-4			
CCCCCCCCCCCCNC(=O)[C@H](CS[C@@H]1C(O)[C@@H](O)[C@@H](O)C2COC(=O)N21)NC(=O)CCCCCCCCCCC (some centres unmarked) [Compound 29]		significant capability in inducing	significant capability in inducing	significant detectable level	significant detectable level	Th1-biased	effective in promoting the productions of IFNγ	not IL-4			
CCCCCCCCCCCCCCCCCCCCCCCCCC(=O)N[C@@H](CO[C@@H]1C(O)[C@@H](O)[C@@H](O)C2COC(=O)N21)[C@H](O)[C@H](O)CCCCCCCCCCCCCC (some centres unmarked) [Compound 6]											suppressive function on αGalCer-induced inflammation [7]: prominent inflammation-suppressing function
